# The supplement of paper PMC10307832
# Experiments:
# Assay in all cases: relative viability (nuclei count vs DMSO), 5 days (fraction); higher = more cells survive
# [1] = compound: NC1(c2ccc(-c3nc4ccn5c(=O)[nH]nc5c4cc3-c3ccccc3)cc2)CCC1 [MK-2206] + C[C@]1(O)C[C@@H](c2nc(-c3ccc4ccc(-c5ccccc5)nc4c3)c3c(N)nccn32)C1 [Linsitinib] (partner 1 µM)
# Summary of the method: (§1)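 After 5 days of treatment, lung cancer cells in 1536-well plates were fixed and stained in a single step (final 0.05% Triton X-100, 1% formaldehyde, 1 ug/ml Hoechst) and their nuclei counted on 4× images. Treatment had been applied by pin tool the day after seeding as one drug alone or as a fixed anchor-drug dose with five library-drug doses (not always all listed) in √10 steps. Relative viability is the nuclei count of treated wells divided by that of vehicle wells, and values are medians of duplicate plates.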
# [2] = compound: NC1(c2ccc(-c3nc4ccn5c(=O)[nH]nc5c4cc3-c3ccccc3)cc2)CCC1 [MK-2206] + Nc1ncn([C@H]2C[C@H](O)[C@@H](CO)O2)c(=O)n1 [Decitabine] (partner 2 µM)
# Summary of the method: as §1
# [3] = compound: NC1(c2ccc(-c3nc4ccn5c(=O)[nH]nc5c4cc3-c3ccccc3)cc2)CCC1 [MK-2206] + CC(=O)c1c(C)c2cnc(Nc3ccc(N4CCNCC4)cn3)nc2n(C2CCCC2)c1=O [Palbociclib] (partner 0.5 µM)
# Summary of the method: as §1
# [4] = compound: NC1(c2ccc(-c3nc4ccn5c(=O)[nH]nc5c4cc3-c3ccccc3)cc2)CCC1 [MK-2206] + CC1(C)CCC(c2ccc(Cl)cc2)=C(CN2CCN(c3ccc(C(=O)NS(=O)(=O)c4ccc(N[C@H](CCN5CCOCC5)CSc5ccccc5)c(S(=O)(=O)C(F)(F)F)c4)cc3)CC2)C1 [Navitoclax] (partner 0.5 µM)
# Summary of the method: as §1
# [5] = compound: CS(=O)(=O)N1CCN(Cc2cc3nc(-c4cccc5[nH]ncc45)nc(N4CCOCC4)c3s2)CC1 [Pictilisib] + Cc1nc(Nc2ncc(C(=O)Nc3c(C)cccc3Cl)s2)cc(N2CCN(CCO)CC2)n1 [Dasatinib] (partner 0.075 µM)
# Summary of the method: as §1
Cell Line,relative viability ([1]; first compound 0.01 µM),relative viability ([1]; first compound 0.03162 µM),relative viability ([1]; first compound 0.3162 µM),relative viability ([1]; first compound 1 µM),relative viability ([2]; first compound 0.01 µM),relative viability ([2]; first compound 0.03162 µM),relative viability ([2]; first compound 0.3162 µM),relative viability ([2]; first compound 1 µM),relative viability ([3]; first compound 0.01 µM),relative viability ([3]; first compound 0.03162 µM),relative viability ([3]; first compound 0.3162 µM),relative viability ([3]; first compound 1 µM),relative viability ([4]; first compound 0.01 µM),relative viability ([4]; first compound 0.03162 µM),relative viability ([4]; first compound 0.3162 µM),relative viability ([4]; first compound 1 µM),relative viability ([5]; first compound 0.02 µM),relative viability ([5]; first compound 0.06325 µM),relative viability ([5]; first compound 0.6325 µM),relative viability ([5]; first compound 2 µM)
NCI-H520,1.13,0.933,0.52,0.542,0.489,0.527,0.264,0.212,0.215,0.218,0.153,0.149,1.11,1.09,0.701,0.489,0.176,0.135,0.146,0.114
A-427,1.13,1.09,1.14,1.17,0.6,0.603,0.562,0.567,0.512,0.585,0.507,0.524,0.937,0.877,0.849,0.902,0.666,0.616,0.648,0.347
NCI-H460,0.733,0.801,0.325,0.229,0.491,0.506,0.513,0.419,0.137,0.224,0.142,0.0552,1.16,1.16,1.21,1.07,0.531,0.545,0.205,0.0803
NCI-H1395,1.22,1.03,0.915,1.23,0.703,0.853,0.705,0.657,0.65,0.664,0.485,0.526,1.17,1.63,1.12,0.927,0.406,0.392,0.296,0.265
NCI-H23,0.583,0.625,0.58,0.628,0.325,0.318,0.295,0.332,0.555,0.5,0.427,0.459,0.956,0.899,0.947,0.811,0.864,0.863,0.487,0.234
LOU-NH91,0.939,1.01,0.941,0.844,0.783,0.839,0.793,0.768,0.531,0.46,0.507,0.547,0.702,0.745,0.749,0.621,0.581,0.546,0.443,0.359
NCI-H2009,1.15,1.16,1.16,1.02,0.379,0.376,0.432,0.365,0.139,0.25,0.179,0.177,1.12,1.15,1.17,1.13,0.307,0.298,0.159,0.129
NCI-H2126,0.742,0.634,0.63,0.686,0.575,0.528,0.526,0.574,0.372,0.358,0.357,0.335,0.821,0.814,0.782,0.793,0.626,0.566,0.337,0.3
NCI-H1437,0.99,1.08,0.948,0.951,0.603,0.559,0.562,0.521,0.304,0.332,0.336,0.286,1.07,1.16,1.18,1.09,0.445,0.386,0.255,0.178
SK-LU-1,1.19,1.02,0.987,1.01,0.648,0.592,0.613,0.555,0.431,0.433,0.375,0.353,1.01,0.992,1.08,0.874,0.159,0.168,0.103,0.109
NCI-H838,1,1.03,1.02,0.95,0.472,0.494,0.496,0.451,0.223,0.226,0.203,0.193,1.15,1.19,1.19,1.04,0.346,0.277,0.279,0.217
NCI-H1755,0.997,0.996,0.903,0.876,0.724,0.71,0.726,0.638,0.461,0.419,0.388,0.43,1.02,0.985,0.829,0.895,0.406,0.415,0.246,0.187
NCI-H1915,1.12,1.07,1.04,1.09,0.263,0.252,0.264,0.251,0.594,0.612,0.499,0.505,0.813,0.83,0.835,0.784,0.326,0.317,0.304,0.286
NCI-H2347,0.906,1,0.848,0.952,0.585,0.573,0.591,0.557,0.418,0.415,0.39,0.3,0.752,0.883,0.684,0.883,0.321,0.297,0.337,0.215
HARA,0.907,0.919,0.906,0.922,0.435,0.481,0.551,0.587,0.268,0.343,0.27,0.221,1.08,1.11,1.24,1.17,0.256,0.246,0.163,0.142
NCI-H2085,0.915,0.85,0.815,0.692,0.511,0.584,0.513,0.514,0.433,0.558,0.397,0.522,1.09,1.19,0.902,0.825,0.241,0.22,0.198,0.18

Cell Line,relative viability ([1]; first compound 0.01 µM),relative viability ([1]; first compound 0.03162 µM),relative viability ([1]; first compound 0.3162 µM),relative viability ([1]; first compound 1 µM),relative viability ([2]; first compound 0.01 µM),relative viability ([2]; first compound 0.03162 µM),relative viability ([2]; first compound 0.3162 µM),relative viability ([2]; first compound 1 µM),relative viability ([3]; first compound 0.01 µM),relative viability ([3]; first compound 0.03162 µM),relative viability ([3]; first compound 0.3162 µM),relative viability ([3]; first compound 1 µM),relative viability ([4]; first compound 0.01 µM),relative viability ([4]; first compound 0.03162 µM),relative viability ([4]; first compound 0.3162 µM),relative viability ([4]; first compound 1 µM),relative viability ([5]; first compound 0.02 µM),relative viability ([5]; first compound 0.06325 µM),relative viability ([5]; first compound 0.6325 µM),relative viability ([5]; first compound 2 µM)
NCI-H727,0.308,0.313,0.244,0.27,0.959,0.833,0.884,0.755,0.775,0.658,0.638,0.625,0.424,0.367,0.212,0.314,0.319,0.38,0.292,0.342
NCI-H1993,0.681,0.811,0.704,0.71,0.533,0.585,0.516,0.491,0.638,0.74,0.545,0.471,0.901,0.801,0.678,0.649,0.508,0.467,0.483,0.58
EMC-BAC-2,0.811,0.821,0.769,0.748,0.98,0.956,0.939,0.829,0.511,0.517,0.462,0.456,1.13,1.14,1.15,1.08,0.317,0.324,0.247,0.199
NCI-H2087,0.965,0.906,0.791,0.914,0.244,0.273,0.24,0.196,0.225,0.226,0.184,0.217,1.14,0.905,0.906,0.912,0.672,0.822,0.632,0.691
NCI-H441,0.674,0.579,0.435,0.415,0.248,0.251,0.206,0.234,0.226,0.206,0.207,0.167,0.77,0.639,0.6,0.505,0.639,0.528,0.352,0.256
LXF-289,0.954,0.988,0.966,0.99,0.398,0.418,0.412,0.396,0.581,0.628,0.594,0.576,0.914,1.01,1.01,0.972,0.189,0.212,0.104,0.0692
PC-3 [JPC-3],1.01,0.938,0.91,0.97,0.806,0.807,0.855,0.852,0.5,0.509,0.535,0.519,0.817,0.849,0.83,0.825,0.965,1.02,1.03,0.555
HCC-366,0.637,0.675,0.364,0.384,0.358,0.334,0.339,0.32,0.392,0.38,0.225,0.244,1.04,1.11,0.736,1.04,0.537,0.566,0.193,0.0747
NCI-H1651,0.906,0.915,0.874,0.937,0.592,0.652,0.637,0.432,0.506,0.536,0.486,0.482,0.994,1.05,1.02,0.998,0.35,0.387,0.358,0.201
NCI-H1355,0.768,0.805,0.726,0.786,0.347,0.362,0.379,0.345,0.39,0.392,0.362,0.329,0.961,0.828,0.961,0.819,0.645,0.711,0.469,0.331
LC-2-ad,0.813,0.843,0.909,0.781,0.748,0.79,0.859,0.881,0.488,0.523,0.51,0.499,0.423,0.506,0.288,0.3,0.739,0.516,0.248,0.177
NCI-H1944,1.27,1.17,1.15,1.17,0.414,0.449,0.508,0.446,0.338,0.332,0.3,0.296,1.07,1.03,1.02,0.992,0.231,0.186,0.164,0.173
HCC-827,1.01,0.989,0.982,0.914,0.347,0.256,0.276,0.228,0.568,0.542,0.292,0.344,1.06,1.12,1.04,1.01,0.357,0.242,0.183,0.136
COR-L23,0.909,0.996,1,0.693,0.411,0.417,0.421,0.388,0.277,0.312,0.268,0.291,0.969,1.14,1.07,0.877,0.445,0.481,0.384,0.295
NCI-H3122,0.942,1.07,0.927,0.91,0.38,0.416,0.396,0.426,0.187,0.179,0.201,0.193,1.02,1.03,1.01,0.958,0.876,0.926,0.54,0.179
